Consider five molecules from US20120178666A1 (SHIRE LLC, priority 2009, published 2012).

The nature of data set [1]: Pharmacokinetics in rats in hepatic portal and tail veins following oral administration. The conditions noted are these: rat, equimolar dose. In kind it is in vivo. On the procedure:
Rats were surgically prepared under isofluorane anaesthesia by attaching a silicon catheter to the portal vein then exteriorising it at the nape of the neck with a blood collection port attached.
At each sampling time serial point blood samples (approximately 0.2 mL) were taken simultaneously from the lateral tail vein cannula and the hepatic portal cannula. After collection of the final blood sample each animal was killed by cervical dislocation. Blood samples were collected at 15, 30 minutes and 1, 2, 4, 8 and 24 hours post dose.
Pharmacokinetic parameters in portal and systemic plasma were derived by non-compartmental analysis (linear/logarithmic trapezoidal) using WinNonlin (Version 4.1) software.

The test system of data set [2] is gut motility. The data set can be described thus: Charcoal propulsion test (gut motility). It counts as in vivo, rat. The conditions noted are these: for inhibition at 3 mg/kg: Study 1, oral dose 3 mg/kg guanfacine free base equivalents; for inhibition at 5 mg/kg: Study 1, oral dose 5 mg/kg guanfacine free base equivalents. As to the method:
The effect of a drug on gut motility can be studied by means of the charcoal propulsion test.
The method used was based on that described by Takemori et al. (J. Pharmacol. Exp. Ther. 169:39, 1969). Test treatments were administered orally 60 minutes prior to an oral dose of a 10% suspension of charcoal in 2.5% gum Arabic (2 ml/kg). Twenty minutes after dosing with charcoal, the rats were sacrificed and the entire gastrointestinal tract was removed quickly and carefully. The distance that the charcoal meal had travelled toward the caecum was measured and expressed as a percentage of the total gut length.

Data set [3] can be described thus: Prodrug stability in simulated gastric fluid (USP). The conditions noted are these: 37° C.
Experimental: (§1) The remaining concentrations of the prodrugs were then assayed by HPLC.
Data set [4] is described as follows: Prodrug stability in simulated intestinal fluid (USP). The conditions noted are these: 37° C.
Experimental: as §1
The nature of data set [5]: Comparative pharmacokinetic screening study of guanfacine prodrugs in the monkey. The settings on record: oral gavage.
Experimental: Blood samples were taken on 4 sampling occasions at various times up to 6 hours after administration and submitted to analysis for the parent drug and prodrug using a qualified LC-MS-MS assay.
Data set [6] is described as follows: Comparative bioavailability study in monkeys in the fasted or fed state. It counts as in vivo, cynomolgus monkey. As to the method:
Five male cynomolgus monkeys were used. Food was withdrawn from animals in fasted groups from the evening of the day prior to dosing until approximately 4 hours after dosing.
The formulations were prepared on the day of dosing and administered orally as soon as practicable up to a maximum of 2 hours after formulation.
Blood samples (0.5 mL) were collected from all animals pre-dose and at 0.5, 1, 2, 3, 4, 6, 8 10, 12, 16 and 24 hours after dosing.
Following processing, the resultant plasma was frozen and analysed by a qualified method. Pharmacokinetic evaluation was performed using a validated pharmacokinetic software package.

For data set [7] the following is noted: immediate release guanfacine (TENEX); cited from earlier work.
A short description of data set [8]: Comparative bioavailability study of guanfacine in monkeys (full pharmacokinetics). In kind it is in vivo, cynomolgus monkey. The settings on record: oral gavage, monkey. As to the method:
The characteristics of the test animals are set out in Table 13.
The following pharmacokinetic parameters derived from the plasma analytical data were determined using Win Nonlin;

[9] abbreviates: Rattus norvegicus, po, read-out: % inhibition of GIT transit compard to vehicle.
Where [10] appears, read: Rattus norvegicus, po, Study 1, oral dose 0.1 mg/kg guanfacine free base equivalents, read-out: % inhibition of GIT transit compard to vehicle.
The mark [11] stands for this setting: Rattus norvegicus, po, Study 1, oral dose 0.3 mg/kg guanfacine free base equivalents, read-out: % inhibition of GIT transit compard to vehicle.
[12] abbreviates: Rattus norvegicus, po, Study 1, oral dose 1 mg/kg guanfacine free base equivalents, read-out: % inhibition of GIT transit compard to vehicle.

Where two headings read alike, the source gives them in different places.

As to `CNCC(=O)N[C@@H](COC(=O)NC(=N)NC(=O)Cc1c(Cl)cccc1Cl)C(=O)O` [Compound 61, (S)-serine(guanfacine)-sarcosine carbamate di-trifluoroacetate], in data set [1], the “comparative systemic exposure to guanfacine (in words)” value is given as “similar”. For the same molecule, in data set [2] (setting [9]), the inhibition at 0.1 mg/kg amounted to 8%, the inhibition at 0.3 mg/kg came out at 25% and the inhibition at 1 mg/kg was 31%. The “% prodrug remaining following incubation for: 1 h in simulated gastric fluid pH 1.1” value in data set [3] is listed as 92%. In data set [4], the “% prodrug remaining following incubation for: 2 h in simulated intestinal fluid pH 6.8” value is listed as 96%. In addition, the “prodrug levels in plasma (in words)” value in data set [5] is given as “detectable prodrug levels in plasma”.

For the molecule `CC(C)[C@H](N)C(=O)NCCC(=O)NC(=N)NC(=O)Cc1c(Cl)cccc1Cl` [Compound 2, guanfacine-β-alanine-(S)-valine amide di-trifluoroacetate], the “mean Cmax (ng/mL) prodrug” value in data set [6] (Fasted, 0.5 mg/kg guanfacine equivalent, oral) is on record as “BLQ”. The inhibition at 0.1 mg/kg in data set [2] (setting [10]) is -3%. The inhibition at 0.3 mg/kg in data set [2] (setting [11]) is 30%. For the same molecule, the inhibition at 1 mg/kg in data set [2] (setting [12]) turned out to be 42%. Further, in data set [2] (setting [9]), the inhibition at 3 mg/kg was 42% and the inhibition at 5 mg/kg worked out at 42%. The “% prodrug remaining following incubation for: 1 h in simulated gastric fluid pH 1.1” value in data set [3] was 75%. Further, the “% prodrug remaining following incubation for: 2 h in simulated intestinal fluid pH 6.8” value in data set [4] was 89%. The “prodrug levels in plasma (in words)” value in data set [5] was “detectable prodrug levels in plasma”.

As to `N=C(N)NC(=O)Cc1c(Cl)cccc1Cl` [Guanfacine, guanfacine, reference compound], the “food effect (in words)” value in data set [6] (fasted vs fed) is “apparent absence of a food effect”. The inhibition at 0.1 mg/kg in data set [2] (setting [10]) was 52%; in data set [2] (Rattus norvegicus, po, Study 2, oral dose 0.1 mg/kg guanfacine free base equivalents, read-out: % inhibition of GIT transit compard to vehicle) it was 41%. In addition, the inhibition at 0.3 mg/kg in data set [2] (setting [11]) stood at 55%; in data set [2] (Rattus norvegicus, po, Study 2, oral dose 0.3 mg/kg guanfacine free base equivalents, read-out: % inhibition of GIT transit compard to vehicle) it was 56%. The inhibition at 1 mg/kg in data set [2] (setting [12]) amounted to 47%. Besides, the inhibition at 0.03 mg/kg in data set [2] (Rattus norvegicus, po, Study 2, oral dose 0.03 mg/kg guanfacine free base equivalents, read-out: % inhibition of GIT transit compard to vehicle) was found to be 13%. In addition, in data set [2] (oral, 0.1 mg base/kg), the “reduction in the distance travelled by the charcoal plug within 20 minutes compared to control group” value is reported as 41-52%. Further, the “time at which peak plasma drug levels are reached after dosing” value in data set [7] is at least 1 h.

Turning to `CC(C)[C@@H](N)C(=O)N[C@@H](CCC(=O)NC(=N)NC(=O)Cc1c(Cl)cccc1Cl)C(=O)O` [Compound 5, guanfacine-γ-(S)-glutamic acid-(R)-valine amide di-trifluoroacetate], in data set [8], the “plasma guanfacine profile (in words)” value was “sustained guanfacine concentrations”. Besides, the inhibition at 0.1 mg/kg in data set [2] (setting [10]) is 6%. Further, the inhibition at 0.3 mg/kg in data set [2] (setting [11]) stood at 22%. The inhibition at 1 mg/kg in data set [2] (setting [12]) turned out to be 48%. For the same molecule, the inhibition at 1.7 mg/kg in data set [2] (Rattus norvegicus, po, Study 1, oral dose 1.7 mg/kg guanfacine free base equivalents, read-out: % inhibition of GIT transit compard to vehicle) stood at 50%. In data set [2] (setting [9]), the inhibition at 3 mg/kg was 44% and the inhibition at 5 mg/kg stood at 42%. For the same molecule, the “% prodrug remaining following incubation for: 1 h in simulated gastric fluid pH 1.1” value in data set [3] is reported as 86%. Moreover, the “% prodrug remaining following incubation for: 2 h in simulated intestinal fluid pH 6.8” value in data set [4] was 89%.

Take `CNCC(=O)N[C@H](C(=O)O)[C@@H](C)OC(=O)NC(=N)NC(=O)Cc1c(Cl)cccc1Cl` [Compound 63, sarcosine-(2S,3R)-threonine(guanfacine) carbamate di-trifluoroacetate]: the “comparative systemic exposure to guanfacine (in words)” value in data set [1] was “similar”. In data set [2] (setting [9]), the inhibition at 0.1 mg/kg was 0%, the inhibition at 0.3 mg/kg was 13% and the inhibition at 1 mg/kg came out at 49%. Also, the “% prodrug remaining following incubation for: 1 h in simulated gastric fluid pH 1.1” value in data set [3] is 86%. Besides, the “% prodrug remaining following incubation for: 2 h in simulated intestinal fluid pH 6.8” value in data set [4] is on record as 99%. Also, the “prodrug levels in plasma (in words)” value in data set [5] was “detectable prodrug levels in plasma”.

What is called inhibition is the relative decrease from the control value, in per cent.
